Converted amounts (≈) assume the structure as drawn. Values belong to the molecule of their own block, whether it stands above or below them.
How the values were obtained:
[1] = Unbound brain to plasma drug concentration ratio in mouse at 50 mg/kg,po administration and measured after 2 hrs; format: ADME, organism-based; settings: read-out: K(p,uu,brain)
[2] = Lipophilicity, logD of the compound at pH 7.4; format: physicochemical; settings: buffer
[3] = target: Serine-protein kinase ATM (Homo sapiens, UniProt Q13315); assay: Inhibition of ATM in human HT-29 cells incubated for 2 hrs by Alexa Fluor 488/Hoeschst staining based plate reader assay; format: cell-based
[4] = Apparent permeability across apical to basolateral side in dog MDCKII-MDR1 cells overexpressing BCRP at 1 uM incubated for 90 mins by LC-MS/MS analysis; format: ADME, cell-based, Canis lupus familiaris, MDCK-MDR1
MDR1, BCRP [5] = assay: Efflux ratio of apparent permeability across basolateral to apical side over apical to basolateral side in dog MDCKII-MDR1 cells overexpressing BCRP at 0.1 uM incubated for 90 mins by LC-MS/MS analysis; format: ADME, cell-based, Canis lupus familiaris, MDCK-MDR1
[6] = Intrinsic clearance in rat hepatocyte assessed per 10^6 cells; format: ADME, cell-based; settings: hepatocytes, read-out: CLH
[7] = Intrinsic clearance in human hepatocyte assessed per 10^6 cells; format: ADME, cell-based; settings: hepatocytes, read-out: CLH
[8] = Aqueous solubility of the compound in pH 7.4; format: physicochemical; settings: buffer
[9] = target: Serine/threonine-protein kinase ATR (Homo sapiens, UniProt Q13535); assay: Inhibition of ATR in human HT-29 cells incubated for 2 hrs by Alexa Fluor 488/Hoeschst staining based plate reader assay; format: cell-based
[10] = Apparent permeability across apical to basolateral side in dog MDCKII-MDR1 cells overexpressing BCRP at 0.1 uM incubated for 90 mins by LC-MS/MS analysis; format: ADME, cell-based, Canis lupus familiaris, MDCK-MDR1
MDR1, BCRP [11] = assay: Efflux ratio of apparent permeability across basolateral to apical side over apical to basolateral side in dog MDCKII-MDR1 cells overexpressing BCRP at 1 uM incubated for 90 mins by LC-MS/MS analysis; format: ADME, cell-based, Canis lupus familiaris, MDCK-MDR1
[12] = Bioavailability in rat at 1 mg/kg,po or 0.5 mg/kg,iv administration measured for 24 hrs by LC-MS/MS analysis; format: ADME, organism-based; settings: in vivo
[13] = target: Serine/threonine-protein kinase mTOR (Homo sapiens, UniProt P42345); assay: Inhibition of mTOR in human MDA-MB-468 cells incubated for 2.5 hrs by Alexa Fluor 488 staining based fluorescence analysis; format: cell-based
[14] = target: Phosphatidylinositol 4,5-bisphosphate 3-kinase catalytic subunit alpha isoform (Homo sapiens, UniProt P42336); assay: Inhibition of PI3Kalpha in human BT-474 cells incubated for 140 mins by ELISA; format: cell-based
[15] = Intrinsic clearance in dog hepatocyte assessed per 10^6 cells; format: ADME, cell-based, Canis lupus familiaris; settings: hepatocytes, read-out: CLH
[16] = Volume of distribution at steady state in dog at 2 mg/kg,po or 1 mg/kg,iv administration measured for 24 hrs by LC-MS/MS analysis; format: ADME, organism-based, Canis lupus familiaris; settings: in vivo
[17] = Plasma protein binding in rat assessed as unbound fraction incubated for 16 hrs by equilibrium dialysis based UPLC-MS/MS analysis; format: ADME, cell-free
[18] = Plasma protein binding in human assessed as unbound fraction incubated for 16 hrs by equilibrium dialysis based UPLC-MS/MS analysis; format: ADME, cell-free
[19] = Plasma protein binding in dog assessed as unbound fraction incubated for 16 hrs by equilibrium dialysis based UPLC-MS/MS analysis; format: ADME, cell-free, Canis lupus familiaris
[20] = Half life in rat at 1 mg/kg,po or 0.5 mg/kg,iv administration measured for 24 hrs by LC-MS/MS analysis; format: ADME, organism-based; settings: in vivo
[21] = Half life in dog at 2 mg/kg,po or 1 mg/kg,iv administration measured for 24 hrs by LC-MS/MS analysis; format: ADME, organism-based, Canis lupus familiaris; settings: in vivo
[22] = Dissociation constant, pKa of compound; format: physicochemical
[23] = Volume of distribution at steady state in rat at 1 mg/kg,po or 0.5 mg/kg,iv administration measured for 24 hrs by LC-MS/MS analysis; format: ADME, organism-based; settings: in vivo
[24] = Intrinsic clearance in human liver microsomes; format: ADME, Microsome; settings: read-out: CLH
[25] = Tmax in Cynomolgus monkey at iv administered as bolus injection measured at 4 to 90 mins by gamma counter analysis; format: ADME, organism-based, Macaca fascicularis; settings: in vivo, time 4-90 min
[26] = Unbound fraction in Cynomolgus monkey plasma at iv administered as bolus injection measured at 4 to 90 mins by PET analysis; format: ADME, organism-based, Macaca fascicularis; settings: time 4-90 min
[27] = Unbound fraction in Cynomolgus monkey brain at iv administered as bolus injection measured at 4 to 90 mins by PET analysis; format: ADME, organism-based, Macaca fascicularis; settings: time 4-90 min
[28] = Unbound brain to plasma drug concentration ratio in Cynomolgus monkey at iv administered as bolus injection measured at 4 to 90 mins by PET analysis; format: ADME, organism-based, Macaca fascicularis; settings: time 4-90 min, read-out: K(p,uu,brain)

Serine/threonine-protein kinase ATR, sequence (Q13535 whole entry): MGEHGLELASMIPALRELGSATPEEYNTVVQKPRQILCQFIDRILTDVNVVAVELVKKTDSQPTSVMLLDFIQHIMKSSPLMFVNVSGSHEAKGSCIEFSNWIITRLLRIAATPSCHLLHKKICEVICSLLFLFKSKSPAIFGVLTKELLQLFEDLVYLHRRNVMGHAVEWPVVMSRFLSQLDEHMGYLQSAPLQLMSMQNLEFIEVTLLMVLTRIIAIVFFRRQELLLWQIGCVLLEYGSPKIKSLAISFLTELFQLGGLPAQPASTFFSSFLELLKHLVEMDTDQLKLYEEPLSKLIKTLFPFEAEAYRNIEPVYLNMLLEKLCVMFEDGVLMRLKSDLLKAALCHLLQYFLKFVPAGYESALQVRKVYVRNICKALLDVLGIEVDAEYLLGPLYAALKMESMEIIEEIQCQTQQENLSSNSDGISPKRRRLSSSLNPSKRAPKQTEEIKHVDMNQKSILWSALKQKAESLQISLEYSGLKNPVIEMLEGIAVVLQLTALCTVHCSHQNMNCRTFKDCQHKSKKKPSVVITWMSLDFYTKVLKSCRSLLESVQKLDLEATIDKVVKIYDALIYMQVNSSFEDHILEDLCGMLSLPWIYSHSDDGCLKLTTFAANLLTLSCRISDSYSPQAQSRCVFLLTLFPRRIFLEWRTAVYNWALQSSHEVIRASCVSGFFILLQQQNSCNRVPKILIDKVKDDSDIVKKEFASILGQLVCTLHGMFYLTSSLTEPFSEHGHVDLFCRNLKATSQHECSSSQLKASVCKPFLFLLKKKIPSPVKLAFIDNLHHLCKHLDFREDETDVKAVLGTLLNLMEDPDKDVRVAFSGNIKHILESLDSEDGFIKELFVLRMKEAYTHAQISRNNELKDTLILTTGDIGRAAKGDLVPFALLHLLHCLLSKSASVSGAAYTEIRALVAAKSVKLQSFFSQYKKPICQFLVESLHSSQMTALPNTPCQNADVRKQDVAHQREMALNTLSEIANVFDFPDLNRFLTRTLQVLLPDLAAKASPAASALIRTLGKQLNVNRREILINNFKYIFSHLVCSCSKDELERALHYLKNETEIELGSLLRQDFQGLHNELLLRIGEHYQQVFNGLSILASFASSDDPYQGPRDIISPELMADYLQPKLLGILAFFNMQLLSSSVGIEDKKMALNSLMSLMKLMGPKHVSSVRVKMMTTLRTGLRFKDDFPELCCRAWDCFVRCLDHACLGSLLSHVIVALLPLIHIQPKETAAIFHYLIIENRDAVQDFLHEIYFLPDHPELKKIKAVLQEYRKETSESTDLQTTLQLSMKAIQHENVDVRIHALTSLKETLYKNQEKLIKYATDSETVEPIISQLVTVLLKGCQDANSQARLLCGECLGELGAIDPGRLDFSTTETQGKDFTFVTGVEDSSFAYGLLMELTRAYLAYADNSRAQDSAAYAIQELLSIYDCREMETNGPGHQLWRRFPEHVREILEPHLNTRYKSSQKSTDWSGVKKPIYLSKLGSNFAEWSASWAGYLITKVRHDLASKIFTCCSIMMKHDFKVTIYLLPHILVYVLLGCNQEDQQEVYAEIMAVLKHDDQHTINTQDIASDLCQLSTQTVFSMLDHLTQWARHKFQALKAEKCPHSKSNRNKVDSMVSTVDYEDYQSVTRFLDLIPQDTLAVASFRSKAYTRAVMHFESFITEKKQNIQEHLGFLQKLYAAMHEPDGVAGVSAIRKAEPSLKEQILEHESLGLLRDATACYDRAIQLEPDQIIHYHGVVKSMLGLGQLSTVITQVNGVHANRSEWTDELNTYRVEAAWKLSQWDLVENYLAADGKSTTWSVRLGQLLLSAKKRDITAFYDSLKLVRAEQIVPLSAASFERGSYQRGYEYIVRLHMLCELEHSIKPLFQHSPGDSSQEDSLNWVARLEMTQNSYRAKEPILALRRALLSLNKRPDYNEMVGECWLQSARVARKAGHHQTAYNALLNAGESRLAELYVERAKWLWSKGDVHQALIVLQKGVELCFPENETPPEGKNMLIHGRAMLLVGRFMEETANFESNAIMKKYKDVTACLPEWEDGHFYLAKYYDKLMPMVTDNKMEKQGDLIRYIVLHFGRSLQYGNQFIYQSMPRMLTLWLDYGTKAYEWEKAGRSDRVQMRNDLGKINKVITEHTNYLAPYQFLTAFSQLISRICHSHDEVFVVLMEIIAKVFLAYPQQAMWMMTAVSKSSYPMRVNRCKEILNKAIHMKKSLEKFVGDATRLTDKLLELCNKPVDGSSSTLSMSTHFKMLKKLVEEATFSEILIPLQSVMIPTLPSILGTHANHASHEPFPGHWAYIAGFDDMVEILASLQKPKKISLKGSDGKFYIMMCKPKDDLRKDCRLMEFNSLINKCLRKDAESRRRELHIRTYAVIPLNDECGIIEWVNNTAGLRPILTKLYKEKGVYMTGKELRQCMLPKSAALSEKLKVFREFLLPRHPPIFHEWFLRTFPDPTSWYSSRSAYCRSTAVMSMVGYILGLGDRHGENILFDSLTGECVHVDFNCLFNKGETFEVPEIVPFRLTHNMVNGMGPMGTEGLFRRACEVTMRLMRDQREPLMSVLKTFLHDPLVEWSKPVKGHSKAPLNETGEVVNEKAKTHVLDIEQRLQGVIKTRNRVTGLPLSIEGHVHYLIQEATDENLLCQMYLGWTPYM
Phosphatidylinositol 4,5-bisphosphate 3-kinase catalytic subunit alpha isoform, sequence (P42336 whole entry, canonical isoform): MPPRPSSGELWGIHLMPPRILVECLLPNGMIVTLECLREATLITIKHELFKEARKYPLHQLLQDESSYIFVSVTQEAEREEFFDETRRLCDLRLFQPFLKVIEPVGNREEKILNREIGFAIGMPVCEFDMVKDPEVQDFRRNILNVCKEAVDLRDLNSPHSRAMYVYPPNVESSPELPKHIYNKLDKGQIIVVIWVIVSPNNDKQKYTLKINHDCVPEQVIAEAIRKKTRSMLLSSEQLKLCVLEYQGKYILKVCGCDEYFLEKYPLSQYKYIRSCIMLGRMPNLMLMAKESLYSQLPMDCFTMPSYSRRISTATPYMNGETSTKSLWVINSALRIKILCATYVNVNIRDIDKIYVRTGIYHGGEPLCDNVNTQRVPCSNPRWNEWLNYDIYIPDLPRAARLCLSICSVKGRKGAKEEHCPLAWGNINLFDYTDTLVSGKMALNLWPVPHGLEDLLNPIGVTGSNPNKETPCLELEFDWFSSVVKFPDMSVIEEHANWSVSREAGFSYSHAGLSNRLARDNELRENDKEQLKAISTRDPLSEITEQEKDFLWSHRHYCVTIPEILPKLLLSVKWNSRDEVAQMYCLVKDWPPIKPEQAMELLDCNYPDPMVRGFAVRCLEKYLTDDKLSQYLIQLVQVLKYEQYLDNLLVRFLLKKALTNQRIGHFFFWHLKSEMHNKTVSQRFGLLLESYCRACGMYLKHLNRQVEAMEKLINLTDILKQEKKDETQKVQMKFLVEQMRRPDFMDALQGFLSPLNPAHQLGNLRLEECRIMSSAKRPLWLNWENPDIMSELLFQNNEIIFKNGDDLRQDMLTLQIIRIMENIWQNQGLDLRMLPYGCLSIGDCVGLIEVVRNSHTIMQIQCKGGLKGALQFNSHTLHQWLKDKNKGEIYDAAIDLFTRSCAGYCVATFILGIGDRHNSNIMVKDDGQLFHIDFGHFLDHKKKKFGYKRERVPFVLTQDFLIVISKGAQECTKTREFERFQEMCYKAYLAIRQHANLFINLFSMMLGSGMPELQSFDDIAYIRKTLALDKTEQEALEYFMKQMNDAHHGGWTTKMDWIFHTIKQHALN

Kp uu at 2 h [1]: 0.67 | logD [2]: 2.2
Structure (SMILES): Cn1c(=O)n(C2CCOCC2)c2c3cc(-c4cccnc4)ccc3ncc21

IC50 [3]: 0.251 nM | Papp A→B at […], 1 µM [4]: 25 ×10⁻⁶ cm/s | efflux ratio at […], 0.1 µM (MDR1, BCRP [5]): 2.6 | hepatocyte CLint [6]: 1.8 µL/min/1e6 cells | hepatocyte CLint [7]: 2.6 µL/min/1e6 cells | solubility [8]: 499 µM (≈ 222 µg/mL) | logD [2]: 2 | IC50 [9]: > 31600 nM | Papp A→B at […], 0.1 µM [10]: 24 ×10⁻⁶ cm/s | efflux ratio at […], 1 µM (MDR1, BCRP [11]): 0.8
Structure (SMILES): CC(C)n1c(=O)n(C)c2cnc3ccc(-c4ccc(OCCCN5CCCC5)nc4)cc3c21

bioavailability [12]: 53% | IC50 [13]: 3160 nM | IC50 [14]: 316 nM | Papp A→B at […], 1 µM [4]: 27 ×10⁻⁶ cm/s | hepatocyte CLint [15]: 80 µL/min/1e6 cells | Vdss [16]: 7.5 L/kg | fraction unbound at 16 h [17]: 0.004 | fraction unbound at 16 h [18]: 0.07 | fraction unbound at 16 h [19]: 0.26 | hepatocyte CLint [6]: 27 µL/min/1e6 cells | hepatocyte CLint [7]: 4.5 µL/min/1e6 cells | solubility [8]: 22 µM (≈ 9.47 µg/mL) | half-life [20]: 2.9 h | logD [2]: 3 | half-life [21]: 1.6 h | pKa [22]: 7.9 | Vdss [23]: 0.6 L/kg
Structure (SMILES): CC(C)n1c(=O)n(C)c2cnc3ccc(-c4ccc(N5CC[C@@H](N(C)C)C5)nc4)cc3c21

microsomal CLint [24]: 65 µL/min/mg | hepatocyte CLint [6]: 20 µL/min/1e6 cells | hepatocyte CLint [7]: 7.2 µL/min/1e6 cells | solubility [8]: 43 µM (≈ 19.9 µg/mL) | logD [2]: 3 | pKa [22]: 8.1 | IC50 [9]: > 20000 nM | Papp A→B at […], 0.1 µM [10]: 19 ×10⁻⁶ cm/s
Structure (SMILES): CC(C)n1c(=O)n(C)c2cnc3ccc(-c4ccc(OCCCN5CC[C@H](F)C5)nc4)cc3c21

Papp A→B at […], 1 µM [4]: 13 ×10⁻⁶ cm/s | microsomal CLint [24]: 100 µL/min/mg | hepatocyte CLint [6]: 29 µL/min/1e6 cells | hepatocyte CLint [7]: 8.5 µL/min/1e6 cells | solubility [8]: 15 µM (≈ 7.16 µg/mL) | logD [2]: 3.3 | pKa [22]: 8.5 | Papp A→B at […], 0.1 µM [10]: 14 ×10⁻⁶ cm/s
Structure (SMILES): CC(C)n1c(=O)n(C)c2cnc3ccc(-c4ccc(OCCCN5CCC(F)CC5)nc4)cc3c21

Tmax [25]: 4.5 min | fraction unbound [26]: 0.195 | fraction unbound [27]: 0.02 | Kp uu [28]: 0.41
Structure (SMILES): CC(C)n1c(=O)n([11CH3])c2cnc3cc(F)c(-c4ccc(OCCCN(C)C)nc4)cc3c21

Tmax [25]: 9.3 min | fraction unbound [26]: 0.175 | fraction unbound [27]: 0.01 | Kp uu [28]: 0.33
Structure (SMILES): CC(C)n1c(=O)n([11CH3])c2cnc3cc(F)c(-c4ccc(OCCCN5CCCCC5)nc4)cc3c21

Source: ChEMBL document CHEMBL5528042, “Identification of Novel, Selective Ataxia-Telangiectasia Mutated Kinase Inhibitors with the Ability to Penetrate the Blood-Brain Barrier: The Discovery of AZD1390” (J Med Chem, 2024)
